Measured values from the NIST ThermoML archive (doi:10.1016/j.fluid.2008.06.007).
± gives the expanded uncertainty stated by the source.

Details: Liquid, Vibrating tube method

Compound: CCCCCO [pentan-1-ol]
- mass density (353.15 K, 100 kPa): 768.1 ± 1.1 kg/m3
- mass density (353.15 K, 10000 kPa): 777.3 ± 1.1 kg/m3
- mass density (353.15 K, 20000 kPa): 785.6 ± 1.1 kg/m3
- mass density (353.15 K, 30000 kPa): 792.9 ± 1.1 kg/m3
- mass density (353.15 K, 40000 kPa): 799.8 ± 1.1 kg/m3
- mass density (353.15 K, 50000 kPa): 806.1 ± 1.1 kg/m3
- mass density (353.15 K, 60000 kPa): 812 ± 1.2 kg/m3
- mass density (353.15 K, 70000 kPa): 817.6 ± 1.2 kg/m3
- mass density (353.15 K, 80000 kPa): 822.8 ± 1.2 kg/m3
- mass density (353.15 K, 90000 kPa): 827.8 ± 1.2 kg/m3
- mass density (353.15 K, 100000 kPa): 832.6 ± 1.2 kg/m3
- mass density (353.15 K, 110000 kPa): 837.2 ± 1.3 kg/m3
- mass density (353.15 K, 120000 kPa): 841.6 ± 1.3 kg/m3
- mass density (353.15 K, 130000 kPa): 845.8 ± 1.3 kg/m3
- mass density (353.15 K, 140000 kPa): 849.7 ± 1.3 kg/m3
- mass density (363.15 K, 100 kPa): 759.4 ± 1.1 kg/m3
- mass density (363.15 K, 10000 kPa): 769.2 ± 1.1 kg/m3
- mass density (363.15 K, 20000 kPa): 777.7 ± 1.1 kg/m3
- mass density (363.15 K, 30000 kPa): 785.6 ± 1.1 kg/m3
- mass density (363.15 K, 40000 kPa): 792.6 ± 1.1 kg/m3
- mass density (363.15 K, 50000 kPa): 799.2 ± 1.1 kg/m3
- mass density (363.15 K, 60000 kPa): 805.5 ± 1.2 kg/m3
- mass density (363.15 K, 70000 kPa): 811.3 ± 1.2 kg/m3
- mass density (363.15 K, 80000 kPa): 816.7 ± 1.2 kg/m3
- mass density (363.15 K, 90000 kPa): 821.8 ± 1.2 kg/m3
- mass density (363.15 K, 100000 kPa): 826.8 ± 1.3 kg/m3
- mass density (363.15 K, 110000 kPa): 831.3 ± 1.3 kg/m3
- mass density (363.15 K, 120000 kPa): 835.8 ± 1.3 kg/m3
- mass density (363.15 K, 130000 kPa): 840.1 ± 1.3 kg/m3
- mass density (363.15 K, 140000 kPa): 844.2 ± 1.3 kg/m3
- mass density (373.15 K, 100 kPa): 750.7 ± 1.1 kg/m3
- mass density (373.15 K, 10000 kPa): 761.2 ± 1.1 kg/m3
- mass density (373.15 K, 20000 kPa): 770.3 ± 1.1 kg/m3
- mass density (373.15 K, 30000 kPa): 778.2 ± 1.1 kg/m3
- mass density (373.15 K, 40000 kPa): 785.7 ± 1.1 kg/m3
- mass density (373.15 K, 50000 kPa): 792.5 ± 1.2 kg/m3
- mass density (373.15 K, 60000 kPa): 798.9 ± 1.2 kg/m3
- mass density (373.15 K, 70000 kPa): 804.9 ± 1.2 kg/m3
- mass density (373.15 K, 80000 kPa): 810.5 ± 1.2 kg/m3
- mass density (373.15 K, 90000 kPa): 815.8 ± 1.2 kg/m3
- mass density (373.15 K, 100000 kPa): 820.9 ± 1.3 kg/m3
- mass density (373.15 K, 110000 kPa): 825.7 ± 1.3 kg/m3
- mass density (373.15 K, 120000 kPa): 830.3 ± 1.3 kg/m3
- mass density (373.15 K, 130000 kPa): 834.7 ± 1.3 kg/m3
- mass density (373.15 K, 140000 kPa): 839 ± 1.4 kg/m3
- mass density (383.15 K, 100 kPa): 741.5 ± 1.1 kg/m3
- mass density (383.15 K, 10000 kPa): 752.3 ± 1.1 kg/m3
- mass density (383.15 K, 20000 kPa): 761.9 ± 1.1 kg/m3
- mass density (383.15 K, 30000 kPa): 770.7 ± 1.1 kg/m3
- mass density (383.15 K, 40000 kPa): 778.5 ± 1.1 kg/m3
- mass density (383.15 K, 50000 kPa): 785.7 ± 1.2 kg/m3
- mass density (383.15 K, 60000 kPa): 792.3 ± 1.2 kg/m3
- mass density (383.15 K, 70000 kPa): 798.5 ± 1.2 kg/m3
- mass density (383.15 K, 80000 kPa): 804.3 ± 1.2 kg/m3
- mass density (383.15 K, 90000 kPa): 809.7 ± 1.3 kg/m3
- mass density (383.15 K, 100000 kPa): 815 ± 1.3 kg/m3
- mass density (383.15 K, 110000 kPa): 819.9 ± 1.3 kg/m3
- mass density (383.15 K, 120000 kPa): 824.7 ± 1.3 kg/m3
- mass density (383.15 K, 130000 kPa): 829.2 ± 1.4 kg/m3
- mass density (383.15 K, 140000 kPa): 833.5 ± 1.4 kg/m3
- mass density (393.15 K, 100 kPa): 731.7 ± 1.1 kg/m3
- mass density (393.15 K, 10000 kPa): 743.4 ± 1.1 kg/m3
- mass density (393.15 K, 20000 kPa): 753.7 ± 1.1 kg/m3
- mass density (393.15 K, 30000 kPa): 762.8 ± 1.1 kg/m3
- mass density (393.15 K, 40000 kPa): 771 ± 1.1 kg/m3
- mass density (393.15 K, 50000 kPa): 778.6 ± 1.2 kg/m3
- mass density (393.15 K, 60000 kPa): 785.6 ± 1.2 kg/m3
- mass density (393.15 K, 70000 kPa): 792 ± 1.2 kg/m3
- mass density (393.15 K, 80000 kPa): 798.1 ± 1.2 kg/m3
- mass density (393.15 K, 90000 kPa): 803.7 ± 1.3 kg/m3
- mass density (393.15 K, 100000 kPa): 809.1 ± 1.3 kg/m3
- mass density (393.15 K, 110000 kPa): 814.2 ± 1.3 kg/m3
- mass density (393.15 K, 120000 kPa): 819.1 ± 1.4 kg/m3
- mass density (393.15 K, 130000 kPa): 823.7 ± 1.4 kg/m3
- mass density (393.15 K, 140000 kPa): 828.1 ± 1.4 kg/m3
- mass density (403.15 K, 100 kPa): 721.7 ± 1.1 kg/m3
- mass density (403.15 K, 10000 kPa): 734.4 ± 1.1 kg/m3
- mass density (403.15 K, 20000 kPa): 745.3 ± 1.1 kg/m3
- mass density (403.15 K, 30000 kPa): 754.9 ± 1.1 kg/m3
- mass density (403.15 K, 40000 kPa): 763.4 ± 1.2 kg/m3
- mass density (403.15 K, 50000 kPa): 771.3 ± 1.2 kg/m3
- mass density (403.15 K, 60000 kPa): 778.4 ± 1.2 kg/m3
- mass density (403.15 K, 70000 kPa): 785.1 ± 1.2 kg/m3
- mass density (403.15 K, 80000 kPa): 791.3 ± 1.3 kg/m3
- mass density (403.15 K, 90000 kPa): 797.2 ± 1.3 kg/m3
- mass density (403.15 K, 100000 kPa): 802.8 ± 1.3 kg/m3
- mass density (403.15 K, 110000 kPa): 808 ± 1.3 kg/m3
- mass density (403.15 K, 120000 kPa): 813 ± 1.4 kg/m3
- mass density (403.15 K, 130000 kPa): 817.8 ± 1.4 kg/m3
- mass density (403.15 K, 140000 kPa): 822.3 ± 1.4 kg/m3
